Experimental data taken from patent publication US10807982B2, “Bromodomain inhibitors” (CELGENE QUANTICEL RESEARCH, INC., priority 2015, dated 2020).

Experiments:
[1] = biological target: BRD4(BD1) (Homo sapiens (Human), UniProt O60885); experiment: In vitro enzyme inhibition assay (BRD4 AlphaScreen, H4-tetraacetyl peptide); type: binding; details: BRD4(BD1) 2 nM, peptide 15 nM
Procedure: Determination of the IC50 for the heterocyclic derivative BRD4 inhibitors disclosed herein was performed as follows. His-tagged […] was cloned, expressed and purified to homogeneity. Filipakopoulos et al., 468 Nature 1067 (2010). BRD4 binding and inhibition was assessed by monitoring the interaction of biotinylated H4-tetraacetyl peptide (AnaSpec, H4K5/8/12/16(Ac), biotin—labeled) with the target using the AlphaScreen technology (Life Technologies). In a 384-well ProxiPlate BRD4(BD1) (2 nM final) was combined with peptide (15 nM final) in 50 mM HEPES (pH 7.3), 10 mM NaCl, 0.25 mM TCEP, 0.1% (w/v) BSA, and 0.005% (w/v) Brij-35 either in the presence of DMSO (final 0.4% DMSO) or compound dilution series in DMSO. After 20 min incubation at RT, Alpha streptavidin donor beads and Nickel Chelate acceptor beads were added to a final concentration of 5 μg/mL. After 2 hr of equilibration, plates were read on an Envision instrument and the IC50 was calculated using a four parameter non-linear curve fit.
The ability of the compounds disclosed herein to inhibit BRD4 activity was quantified and the respective IC50 value was determined.

[2] = test system: Raji, human Burkitts lymphoma cells; experiment: Cell-MTS cellular proliferation assay, Raji; type: cell-based; details: Homo sapiens, 168 hr incubation
Procedure: (§1) A colorimetric cellular proliferation assay (Cell-MTS assay) was performed to assess the ability of the heterocyclic derivative […] inhibitors disclosed herein to effect the proliferation of established cancer cell lines.
(§2) The Cell-MTS assay is a 7-day plate-based colorimetric assay which quantifies the amount of newly generated NADH in the presence or absence of test compound. The NADH level is used for the quantification of cancer cell proliferation.
(§3) Established cancer cell lines with a variety of driving mutations were obtained from American Type Culture Collection (ATCC) and routinely passaged according to ATCC protocols. For routine assay, these cells were seeded at densities which enabled ˜90% confluence after 7 days of culture. Raji, human Burkitts lymphoma cells, (cMYC) were seeded at 15,000 cells per 96-well. HL-60, human proleukemia cells, (NRAS, p16, p53, c-Myc amplified) were seeded at 5,000 cells per 96-well. NCI-H460, human non-small cell lung cancer cells. (KRAS, PIK3CA, STLK11, p16) were seeded at 3,000 cells per 96-well. 24 hr after plating, cells received an 11 point dilution of test compound with final concentration ranges from 100 µM to 2.0 nM. Cells were incubated in the presence of compound for 168 hr at 37° C., and 5% CO2. At the end of this incubation period, 80 µL of media is removed and 20 µL of CellTiter 96® AQueous Non-Radioactive Cell Proliferation Assay solution (Promega) was added. The cells were incubated until the OD490 was >0.6. IC50 values were calculated using the IDBS XLfit software package and include background subtracted OD490 values and normalization to DMSO controls. Cellular proliferation IC50 values were uploaded and archived using the Chem Biography Platform. Table 3 provides the results of the in vitro enzyme inhibition assay experiments and the in vitro cell-based assay experiments performed with the compounds disclosed herein: […]

[3] = test system: HL-60, human proleukemia cells; experiment: Cell-MTS cellular proliferation assay, HL-60; type: cell-based; details: Homo sapiens, HL-60 cells, 168 hr incubation
Procedure: as §1, §2, §3

[4] = test system: NCI-H460, human non-small cell lung cancer cells; experiment: Cell-MTS cellular proliferation assay, NCI-H460; type: cell-based; details: Homo sapiens, 168 hr incubation
Procedure: as §1, §2, §3

Structure (SMILES): Cc1cc(-c2cc(NS(C)(=O)=O)c3ncn(Cc4cccc(F)c4)c3c2)cn(C)c1=O [Example 32, N-[6-(1,5-dimethyl-6-oxopyridin-3-yl)-1-[(3-fluorophenyl)methyl]benzimidazol-4-yl]methanesulfonamide]
- IC50 [1]: ≤ 500 nM
- IC50 [2]: ≤ 500 nM
- IC50 [3]: ≤ 500 nM
- IC50 [4]: 500 to 5000 nM

Structure (SMILES): CCS(=O)(=O)Nc1cc(-c2cc(C)c(=O)n(C)c2)cc2c1ncn2Cc1cccc(F)c1 [Example 33, N-[6-(1,5-dimethyl-6-oxopyridin-3-yl)-1-[(3-fluorophenyl)methyl]benzimidazol-4-yl]ethanesulfonamide]
- IC50 [1]: ≤ 500 nM
- IC50 [2]: ≤ 500 nM
- IC50 [3]: ≤ 500 nM
- IC50 [4]: 500 to 5000 nM

Structure (SMILES): Cc1cc(-c2cc(NS(C)(=O)=O)c3nc(C)n(Cc4ccccc4)c3c2)cn(C)c1=O [Example 34, N-[1-benzyl-6-(1,5-dimethyl-6-oxopyridin-3-yl)-2-methylbenzimidazol-4-yl]methanesulfonamide]
- IC50 [1]: ≤ 500 nM
- IC50 [2]: ≤ 500 nM
- IC50 [3]: ≤ 500 nM
- IC50 [4]: > 5000 nM

Structure (SMILES): Cc1cc(-c2cc(NS(C)(=O)=O)c3nc(C)n(Cc4cccc(F)c4)c3c2)cn(C)c1=O [Example 35, N-[6-(1,5-dimethyl-6-oxopyridin-3-yl)-1-[(3-fluorophenyl)methyl]-2-methylbenzimidazol-4-yl]methanesulfonamide]
- IC50 [1]: ≤ 500 nM
- IC50 [2]: ≤ 500 nM
- IC50 [3]: ≤ 500 nM
- IC50 [4]: 500 to 5000 nM

Structure (SMILES): CCS(=O)(=O)Nc1cc(-c2cc(C)c(=O)n(C)c2)cc2c1nc(C)n2Cc1cccc(F)c1 [Example 36, N-[6-(1,5-dimethyl-6-oxopyridin-3-yl)-1-[(3-fluorophenyl)methyl]-2-methylbenzimidazol-4-yl]ethanesulfonamide]
- IC50 [1]: ≤ 500 nM
- IC50 [2]: ≤ 500 nM
- IC50 [3]: ≤ 500 nM
- IC50 [4]: ≤ 500 nM

Structure (SMILES): Cc1cc(-c2cc(NS(C)(=O)=O)c3nc(C)n(Cc4ccc(F)cc4)c3c2)cn(C)c1=O [Example 37, N-[6-(1,5-dimethyl-6-oxopyridin-3-yl)-1-[(4-fluorophenyl)methyl]-2-methylbenzimidazol-4-yl]methanesulfonamide]
- IC50 [1]: ≤ 500 nM
- IC50 [2]: ≤ 500 nM
- IC50 [3]: ≤ 500 nM
- IC50 [4]: 500 to 5000 nM

Structure (SMILES): COc1cc(-c2cc(NS(C)(=O)=O)c3nc(C)n(Cc4ccc(F)cc4)c3c2)cn(C)c1=O [Example 38, N-[1-[(4-fluorophenyl)methyl]-6-(5-methoxy-1-methyl-6-oxopyridin-3-yl)-2-methylbenzimidazol-4-yl]methanesulfonamide]
- IC50 [1]: ≤ 500 nM
- IC50 [2]: ≤ 500 nM
- IC50 [3]: ≤ 500 nM
- IC50 [4]: > 5000 nM

Structure (SMILES): Cc1cc(-c2cc(NS(C)(=O)=O)c3nc(C)n(CC4CC4)c3c2)cn(C)c1=O [Example 39, N-[1-(cyclopropylmethyl)-6-(1,5-dimethyl-6-oxopyridin-3-yl)-2-methylbenzimidazol-4-yl]methanesulfonamide]
- IC50 [1]: ≤ 500 nM
- IC50 [2]: ≤ 500 nM
- IC50 [3]: ≤ 500 nM
- IC50 [4]: > 5000 nM

Structure (SMILES): CCCCn1cnc2c(NS(=O)(=O)CC)cc(-c3cc(C)c(=O)n(C)c3)cc21 [Example 40, N-[1-butyl-6-(1,5-dimethyl-6-oxopyridin-3-yl)benzimidazol-4-yl]ethanesulfonamide]
- IC50 [1]: ≤ 500 nM
- IC50 [2]: ≤ 500 nM
- IC50 [3]: ≤ 500 nM
- IC50 [4]: > 5000 nM

Structure (SMILES): CCS(=O)(=O)Nc1cc(-c2cc(C)c(=O)n(C)c2)cc2c1ncn2Cc1ccc(F)cc1F [Example 41, N-[1-[(2,4-difluorophenyl)methyl]-6-(1,5-dimethyl-6-oxopyridin-3-yl)benzimidazol-4-yl]ethanesulfonamide]
- IC50 [1]: ≤ 500 nM
- IC50 [2]: ≤ 500 nM
- IC50 [3]: ≤ 500 nM
- IC50 [4]: 500 to 5000 nM

Structure (SMILES): CCS(=O)(=O)Nc1cc(-c2cc(C)c(=O)n(C)c2)cc2c1cnn2Cc1ccccc1 [Example 42, N-[1-benzyl-6-(1,5-dimethyl-6-oxopyridin-3-yl)indazol-4-yl]ethanesulfonamide]
- IC50 [1]: ≤ 500 nM
- IC50 [2]: ≤ 500 nM
- IC50 [3]: ≤ 500 nM
- IC50 [4]: 500 to 5000 nM

Structure (SMILES): CCS(=O)(=O)Nc1cc(-c2cc(C)c(=O)n(C)c2)cc2c1cnn2Cc1ccc(F)cc1 [Example 43, N-[6-(1,5-dimethyl-6-oxopyridin-3-yl)-1-[(4-fluorophenyl)methyl]indazol-4-yl]ethanesulfonamide]
- IC50 [1]: ≤ 500 nM
- IC50 [2]: ≤ 500 nM
- IC50 [3]: ≤ 500 nM
- IC50 [4]: ≤ 500 nM

Structure (SMILES): Cc1cc(-c2cc(NS(C)(=O)=O)c3nc(C)n([C@@H](C)c4ccccc4)c3c2)cn(C)c1=O [Example 44, N-[6-(1,5-dimethyl-6-oxopyridin-3-yl)-2-methyl-1-[(1S)-(1-phenylethyl)]benzimidazol-4-yl]methanesulfonamide]
- IC50 [1]: ≤ 500 nM
- IC50 [2]: ≤ 500 nM
- IC50 [3]: ≤ 500 nM
- IC50 [4]: 500 to 5000 nM

Structure (SMILES): COC[C@@H](C)n1c(C)nc2c(NS(C)(=O)=O)cc(-c3cc(C)c(=O)n(C)c3)cc21 [Example 46, N-[6-(1,5-dimethyl-6-oxopyridin-3-yl)-1-[(2R)-1-methoxypropan-2-yl]-2-methylbenzimidazol-4-yl]methanesulfonamide]
- IC50 [1]: ≤ 500 nM
- IC50 [2]: ≤ 500 nM
- IC50 [3]: ≤ 500 nM
- IC50 [4]: > 5000 nM

Structure (SMILES): CCS(=O)(=O)Nc1cc(-c2cc(C)c(=O)n(C)c2)c2oc(C3CC3)nc2c1 [Example 47, N-[2-cyclopropyl-7-(1,5-dimethyl-6-oxopyridin-3-yl)-1,3-benzoxazol-5-yl]ethanesulfonamide]
- IC50 [1]: ≤ 500 nM
- IC50 [2]: ≤ 500 nM
- IC50 [3]: ≤ 500 nM
- IC50 [4]: > 5000 nM

Structure (SMILES): CCS(=O)(=O)Nc1cc(-c2cn(C)c(=O)c3ccccc23)c2oc(C3CC3)nc2c1 [Example 48, N-[2-cyclopropyl-7-(2-methyl-1-oxoisoquinolin-4-yl)-1,3-benzoxazol-5-yl]ethanesulfonamide]
- IC50 [1]: ≤ 500 nM
- IC50 [2]: ≤ 500 nM
- IC50 [3]: ≤ 500 nM
- IC50 [4]: ≤ 500 nM

Structure (SMILES): CCS(=O)(=O)N1CCOc2cc(OCC3CC3)c(-c3cn(C)c(=O)c4ccccc34)cc21 [Example 49, 4-[7-(cyclopropylmethoxy)-4-ethylsulfonyl-2,3-dihydro-1,4-benzoxazin-6-yl]-2-methylisoquinolin-1-one]
- IC50 [1]: ≤ 500 nM
- IC50 [2]: ≤ 500 nM
- IC50 [3]: ≤ 500 nM
- IC50 [4]: 500 to 5000 nM

Structure (SMILES): CCS(=O)(=O)N1CCOc2cc(OCC3CC3)c(-c3cc(C)c(=O)n(C)c3)cc21 [Example 50, 5-[7-(cyclopropylmethoxy)-4-ethylsulfonyl-2,3-dihydro-1,4-benzoxazin-6-yl]-1,3-dimethylpyridin-2-one]
- IC50 [1]: ≤ 500 nM
- IC50 [2]: ≤ 500 nM
- IC50 [3]: ≤ 500 nM
- IC50 [4]: > 5000 nM

Structure (SMILES): Cc1cc(-c2cc(NS(=O)(=O)C(C)C)cc3nc(C4CC4)oc23)cn(C)c1=O [Example 51, N-[2-cyclopropyl-7-(1,5-dimethyl-6-oxopyridin-3-yl)-1,3-benzoxazol-5-yl]propane-2-sulfonamide]
- IC50 [1]: ≤ 500 nM
- IC50 [2]: 500 to 5000 nM
- IC50 [3]: ≤ 500 nM
- IC50 [4]: > 5000 nM

Structure (SMILES): CCS(=O)(=O)Nc1cc(-c2cc(C)c(=O)n(C)c2)c2oc(C3CCCC3)nc2c1 [Example 52, N-[2-cyclopentyl-7-(1,5-dimethyl-6-oxopyridin-3-yl)-1,3-benzoxazol-5-yl]ethanesulfonamide]
- IC50 [1]: ≤ 500 nM
- IC50 [2]: ≤ 500 nM
- IC50 [3]: ≤ 500 nM
- IC50 [4]: > 5000 nM

Structure (SMILES): CCS(=O)(=O)Nc1cc(-c2cn(C)c(=O)c3ccccc23)c2oc(C3CCCC3)nc2c1 [Example 53, N-[2-cyclopentyl-7-(2-methyl-1-oxoisoquinolin-4-yl)-1,3-benzoxazol-5-yl]ethanesulfonamide]
- IC50 [1]: ≤ 500 nM
- IC50 [2]: ≤ 500 nM
- IC50 [3]: ≤ 500 nM
- IC50 [4]: > 5000 nM

Structure (SMILES): Cc1cc(-c2cc(CS(C)(=O)=O)cc3nc(C4CC4)oc23)cn(C)c1=O [Example 56, 5-[2-cyclopropyl-5-(methylsulfonylmethyl)-1,3-benzoxazol-7-yl]-1,3-dimethylpyridin-2-one]
- IC50 [1]: ≤ 500 nM
- IC50 [2]: 500 to 5000 nM
- IC50 [3]: ≤ 500 nM
- IC50 [4]: > 5000 nM
